Assay results from ChEMBL document CHEMBL3526110, “Preclinical evaluation of the metabolism and disposition of RRx-001, a novel investigative anticancer agent” (Drug Metab Dispos, 2012).

Legend:
Format in all cases: ADME, tissue-based
Blood [1] = test: Retention time in rat whole blood in presence of 0.1% formic acid in acetonitrile at 20 uM by LC-MS/MS method
Blood [2] = test: Retention time in human whole blood in presence of 0.1% formic acid in acetonitrile at 20 uM by LC-MS/MS method
Blood [3] = test: Drug metabolism in rat whole blood treated with 20 uM RRx-001 assessed as compound formation by LC-MS/MS method
Blood [4] = test: Drug metabolism in human whole blood treated with 20 uM RRx-001 assessed as compound formation by LC-MS/MS method
Blood [5] = test: Retention time in rat whole blood in presence of 0.1% formic acid in water at 20 uM by LC-MS/MS method
Blood [6] = test: Retention time in human whole blood in presence of 0.1% formic acid in water at 20 uM by LC-MS/MS method

## N[C@@H](CSCC(=O)N1CC([N+](=O)[O-])([N+](=O)[O-])C1)C(=O)NCC(=O)O
Blood [1]
  Retention_time: 6.2 min
Blood [2]
  Retention_time: 6.2 min
Blood [3]
  Drug metabolism: metabolite_detected
Blood [4]
  Drug metabolism: metabolite_detected
Blood [5]
  Retention_time: 8 min
Blood [6]
  Retention_time: 8 min

## N[C@@H](CSCC(=O)N1CC([N+](=O)[O-])C1)C(=O)O
Blood [1]
  Retention_time: 4.3 min
Blood [2]
  Retention_time: 4.3 min
Blood [3]
  Drug metabolism: metabolite_detected
Blood [4]
  Drug metabolism: metabolite_detected
Blood [5]
  Retention_time: 4.7 min
Blood [6]
  Retention_time: 4.7 min
